This data set deals with full-thickness corneal incision. The conditions noted are these: rabbit, in vivo. On the procedure: Animal Preparation and Procedure:
Before each procedure, the rabbits were anesthetized with a subcutaneous injection of a mixture of ketamine hydrochloride (50-80 mg/kg) and xylazine hydrochloride (5-9 mg/kg). The animal was prepared for sterile surgery conducted under aseptic conditions. Periorbital area was cleaned using 5% povidone iodine solution and a drop of this solution was instilled into the fornix and a speculum was used to hold the eyelids open. Using corneal blade (Keratome 3.2 mm), a clear corneal full-thickness tunnel was created in the same manner as in human phacoemulsification surgery. To prevent the globe collapse after corneal tunnel creation, a small amount of viscoelastic was injected in the anterior chamber through a paracentesis. Gentamicin 25 mg, and dexamethasone 2 mg were injected subconjunctivally. Post-operatively, analgesia was administered. Animals allocated to the treatment group were treated with 1 drop (approximately 50 μl) of the active drug (0.03% or 0.3% Nle3 A(1-7) in 2% hydroxyethyl cellulose in 0.05 M phosphate buffer, pH 6.5) under investigation instilled into the conjunctival sac daily (using a dropper throughout the follow-up period. On the other hand, animals allocated to the control group will be treated with vehicle (2% hydroxyethyl cellulose in 0.05 M phosphate buffer, pH 6.5) eyedrops daily throughout the follow-up period.
These ocular follow-up examinations were done while the animal was under anesthesia as described above. Anterior segment imaging includes red free picture and anterior segment fluorescein imaging using Spectralis (Heildelberg Engineering, Germany) where sequential photos are taken after one drop of 10% fluorescein (Akorn Abit Springs, La.) was instilled in the conjunctival sac and a slight pressure was applied to the globe. This is more commonly known as Seidel's test in which fluorescein strip containing 10% fluorescein was applied topically to the affected area and was examined with a cobalt blue filter. At this point, the fluorescein appears green in color. Any changes in color or surface of the fluorescence area indicate the presence of conical leakage. This imaging data were used to assess the degree of corneal wound healing as well as extent of wound leak. Measurement of the intraocular pressure was performed using Tonopen-AVIVA (TPA, Reichert Inc.).
The injury was also imaged using involved using a Heidelberg Retina Tomograph (HRT) instrument. This is a confocal scanning laser ophthalmoscope which was converted into a confocal corneal microscope using an additional microscope lens which attached to the standard lens. This additional lens enabled the HRT to image cells and cell layers within the cornea to allow an in-life phase assessment of the healing and structure of the cornea to allow detailed views of the conical structure and pathology.

Residues, ends and D or L forms follow the SMILES beside them.

Consider `CCCC[C@H](NC(=O)[C@H](CCCNC(=N)N)NC(=O)[C@@H](N)CC(=O)O)C(=O)N[C@@H](Cc1ccc(O)cc1)C(=O)N[C@H](C(=O)N[C@@H](Cc1c[nH]cn1)C(=O)N1CCC[C@H]1C(=O)O)[C@@H](C)CC` [Nle3-A(1-7), Asp-Arg-Nle-Tyr-Ile-His-Pro] (HELM PEPTIDE1{D.R.[Nle].Y.I.H.P}$$$$V2.0), for which the Complications entry is on record as “None”, the “Fundus Exam & Fluorescein angiography” value is listed as “Normal”, the IOP entry is reported as “Normal” and the “change in intraocular pressure” value is reported as “no change”. For the same molecule, the “fundus examination and fluorescein angiography” value is listed as “normal”.

Source of the values: patent publication US9844578B2, “Accelerated healing of eye injuries by angiotensin peptides” (UNIVERSITY OF SOUTHERN CALIFORNIA, priority 2013, dated 2017).
